According to ChEMBL document CHEMBL6078666, “Discovery of Novel Coumarin Pleuromutilin Derivatives as Potent Anti-MRSA Agents” (J Med Chem, 2024):
In brackets after ≈: the same amount, converted by molar mass.

How the values were obtained:
Assay type in all cases: functional
[1] = test system: Streptococcus pneumoniae; experiment: Ratio of MBC to MIC against penicillin-resistant Streptococcus pneumoniae ATCC 51916
[2] = test system: Streptococcus pneumoniae; experiment: Antibacterial activity against penicillin-intermediate Streptococcus pneumoniae ATCC 49619 assessed as bacterial growth inhibition measured after 20 hrs by broth dilution method
[3] = test system: Staphylococcus aureus; experiment: Antibacterial activity against methicillin-resistant Staphylococcus aureus ATCC 33591 assessed as bacterial growth inhibition measured after 20 hrs by broth dilution method
[4] = test system: Enterococcus faecium; experiment: Antibacterial activity against vancomycin-resistant Enterococcus faecium ATCC 51559 assessed as bacterial growth inhibition measured after 20 hrs by broth dilution method
[5] = test system: Enterococcus faecium; experiment: Ratio of MBC to MIC against vancomycin-resistant Enterococcus faecium ATCC 51559
[6] = test system: Streptococcus pneumoniae; experiment: Antibacterial activity against penicillin-resistant Streptococcus pneumoniae ATCC 51916 assessed as bacterial growth inhibition measured after 20 hrs by broth dilution method
[7] = test system: Staphylococcus aureus; experiment: Antibacterial activity against methicillin-resistant Staphylococcus aureus ATCC 43300 assessed as bacterial growth inhibition measured after 20 hrs by broth dilution method
[8] = test system: Staphylococcus epidermidis; experiment: Ratio of MBC to MIC against Staphylococcus epidermidis ATCC 51625
[9] = test system: Streptococcus pneumoniae; experiment: Ratio of MBC to MIC against penicillin-intermediate Streptococcus pneumoniae ATCC 49619
[10] = test system: Staphylococcus aureus; experiment: Ratio of MBC to MIC against Staphylococcus aureus ATCC 43300
[11] = test system: Enterococcus faecium; experiment: Ratio of MBC to MIC against vancomycin-resistant Enterococcus faecium ATCC 700221
[12] = test system: Enterococcus faecium; experiment: Antibacterial activity against vancomycin-resistant Enterococcus faecium ATCC 700221 assessed as bacterial growth inhibition measured after 20 hrs by broth dilution method
[13] = test system: Staphylococcus epidermidis; experiment: Antibacterial activity against Staphylococcus epidermidis ATCC 51625 assessed as bacterial growth inhibition measured after 20 hrs by broth dilution method
[14] = test system: Staphylococcus aureus; experiment: Ratio of MBC to MIC against methicillin-resistant Staphylococcus aureus ATCC 33591

Compound | Ratio [1] | MIC [2] [µg/mL] | MIC [3] [µg/mL] | MIC [4] [µg/mL] | Ratio [5] | MIC [6] [µg/mL] | MIC [7] [µg/mL] | Ratio [8] | Ratio [9] | Ratio [10] | Ratio [11] | MIC [12] [µg/mL] | MIC [13] [µg/mL] | Ratio [14]
C=C[C@]1(C)C[C@@H](OC(=O)CSCCOc2cc(=O)oc3cc(C)ccc23)[C@]2(C)[C@H](C)CC[C@]3(CCC(=O)[C@H]32)[C@@H](C)[C@@H]1O | 4 | 0.125 (≈ 0.209 µM) | 0.125 (≈ 0.209 µM) | 0.25 (≈ 0.419 µM) | 1 | 0.25 (≈ 0.419 µM) | 0.25 (≈ 0.419 µM) | 4 | 2 | >4 | 2 | 0.125 (≈ 0.209 µM) | 0.063 (≈ 0.106 µM) | –
C=C[C@]1(C)C[C@@H](OC(=O)CSCCOc2cc(=O)oc3ccc(F)cc23)[C@]2(C)[C@H](C)CC[C@]3(CCC(=O)[C@H]32)[C@@H](C)[C@@H]1O | – | 1 (≈ 1.66 µM) | 0.5 (≈ 0.832 µM) | 8 (≈ 13.3 µM) | 4 | 1 (≈ 1.66 µM) | 0.5 (≈ 0.832 µM) | >4 | >4 | >4 | >4 | 1 (≈ 1.66 µM) | 0.125 (≈ 0.208 µM) | –
C=C[C@]1(C)C[C@@H](OC(=O)CSCCOc2cc(=O)oc3ccc(Cl)cc23)[C@]2(C)[C@H](C)CC[C@]3(CCC(=O)[C@H]32)[C@@H](C)[C@@H]1O | – | 4 (≈ 6.48 µM) | 0.5 (≈ 0.81 µM) | 1 (≈ 1.62 µM) | >4 | 2 (≈ 3.24 µM) | 0.5 (≈ 0.81 µM) | >4 | >4 | >4 | >4 | 1 (≈ 1.62 µM) | 0.125 (≈ 0.203 µM) | –
C=C[C@]1(C)C[C@@H](OC(=O)CSCCOc2cc(=O)oc3ccc(C)cc23)[C@]2(C)[C@H](C)CC[C@]3(CCC(=O)[C@H]32)[C@@H](C)[C@@H]1O | >4 | 0.063 (≈ 0.106 µM) | 0.25 (≈ 0.419 µM) | 0.25 (≈ 0.419 µM) | 1 | 0.25 (≈ 0.419 µM) | 0.125 (≈ 0.209 µM) | >4 | 2 | >4 | >4 | 0.125 (≈ 0.209 µM) | 0.125 (≈ 0.209 µM) | –
C=C[C@]1(C)C[C@@H](OC(=O)CSCCOc2cc(=O)oc3cc(Cl)ccc23)[C@]2(C)[C@H](C)CC[C@]3(CCC(=O)[C@H]32)[C@@H](C)[C@@H]1O | 2 | 0.063 (≈ 0.102 µM) | 0.25 (≈ 0.405 µM) | 0.5 (≈ 0.81 µM) | >4 | 0.125 (≈ 0.203 µM) | 1 (≈ 1.62 µM) | >4 | >4 | >4 | >4 | 0.125 (≈ 0.203 µM) | 0.125 (≈ 0.203 µM) | –
C=C[C@]1(C)C[C@@H](OC(=O)CSc2cc(=O)oc3ccc(C)cc23)[C@]2(C)[C@H](C)CC[C@]3(CCC(=O)[C@H]32)[C@@H](C)[C@@H]1O | >4 | 0.25 (≈ 0.452 µM) | 0.125 (≈ 0.226 µM) | 2 (≈ 3.62 µM) | 2 | 0.125 (≈ 0.226 µM) | 0.125 (≈ 0.226 µM) | >4 | 4 | >4 | 4 | 0.25 (≈ 0.452 µM) | 0.063 (≈ 0.114 µM) | –
C=C[C@]1(C)C[C@@H](OC(=O)CSc2cc(=O)oc3ccc(Cl)cc23)[C@]2(C)[C@H](C)CC[C@]3(CCC(=O)[C@H]32)[C@@H](C)[C@@H]1O | 4 | 0.125 (≈ 0.218 µM) | 0.125 (≈ 0.218 µM) | 0.5 (≈ 0.872 µM) | 2 | 0.125 (≈ 0.218 µM) | 0.25 (≈ 0.436 µM) | >4 | 2 | >4 | >4 | 0.125 (≈ 0.218 µM) | 0.063 (≈ 0.11 µM) | –
C=C[C@]1(C)C[C@@H](OC(=O)CSCCOc2cc(=O)oc3ccc(Br)cc23)[C@]2(C)[C@H](C)CC[C@]3(CCC(=O)[C@H]32)[C@@H](C)[C@@H]1O | 4 | 2 (≈ 3.02 µM) | 0.25 (≈ 0.378 µM) | 16 (≈ 24.2 µM) | 2 | 2 (≈ 3.02 µM) | 1 (≈ 1.51 µM) | >4 | >4 | 2 | 2 | 1 (≈ 1.51 µM) | 0.25 (≈ 0.378 µM) | >4
